pEC50, pKi: −log10 of the molar value.
Experiments:
[1] = target: T1, 5-hydroxytryptamine receptor 2B (Homo sapiens, UniProt P41595); test: Functional activity against human 5-hydroxytryptamine 2B receptor expressed in CHO cells using fluorometric imaging plate reader; type: cell-based
[2] = target: T2, 5-hydroxytryptamine receptor 2A (Homo sapiens, UniProt P28223); test: Affinity for human 5-hydroxytryptamine 2A receptor expressed in mammalian cell line
[3] = target: T3, 5-hydroxytryptamine receptor 2C (Homo sapiens, UniProt P28335); test: Affinity for human 5-hydroxytryptamine 2C receptor expressed in mammalian cell line
T3 sequence (P28335 whole entry): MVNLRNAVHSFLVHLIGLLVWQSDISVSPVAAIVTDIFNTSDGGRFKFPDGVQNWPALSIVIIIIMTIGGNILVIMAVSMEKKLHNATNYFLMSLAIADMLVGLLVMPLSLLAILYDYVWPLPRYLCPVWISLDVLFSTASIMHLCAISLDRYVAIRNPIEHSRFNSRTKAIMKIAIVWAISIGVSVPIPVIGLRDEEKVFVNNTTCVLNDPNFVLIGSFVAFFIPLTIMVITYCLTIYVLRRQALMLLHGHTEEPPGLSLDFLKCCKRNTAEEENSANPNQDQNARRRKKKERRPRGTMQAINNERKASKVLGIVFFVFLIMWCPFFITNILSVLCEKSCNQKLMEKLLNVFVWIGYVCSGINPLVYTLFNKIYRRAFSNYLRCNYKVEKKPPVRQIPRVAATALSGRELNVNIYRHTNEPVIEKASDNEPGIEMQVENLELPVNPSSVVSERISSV

[4] = target: T1, 5-hydroxytryptamine receptor 2B; test: Relative efficacy against human 5-hydroxytryptamine 2B receptor expressed in CHO cells using fluorometric imaging plate reader relative to 10 uM 5-HT; type: functional, cell-based
[5] = target: T1, 5-hydroxytryptamine receptor 2B; test: Affinity for human 5-hydroxytryptamine 2B receptor expressed in mammalian cell line
[6] = target: T3, 5-hydroxytryptamine receptor 2C; test: Functional activity against human 5-hydroxytryptamine 2C receptor expressed in CHO cells using fluorometric imaging plate reader; type: cell-based
[7] = target: T2, 5-hydroxytryptamine receptor 2A; test: Functional activity against human 5-hydroxytryptamine 2A receptor expressed in CHO cells using fluorometric imaging plate reader; type: cell-based
[8] = target: T2, 5-hydroxytryptamine receptor 2A; test: Relative efficacy against human 5-hydroxytryptamine 2A receptor expressed in CHO cells using fluorometric imaging plate reader relative to 10 uM 5-HT; type: functional, cell-based
Rattus norvegicus [9] = test: Ability of compound to decrease food intake in rats after oral administration; type: functional; details: read-out: MED
Rattus norvegicus [10] = test: Ability of compound to decrease food intake in rats after subcutaneous administration; type: functional; details: sc, read-out: MED

T2 sequence (P28223 whole entry): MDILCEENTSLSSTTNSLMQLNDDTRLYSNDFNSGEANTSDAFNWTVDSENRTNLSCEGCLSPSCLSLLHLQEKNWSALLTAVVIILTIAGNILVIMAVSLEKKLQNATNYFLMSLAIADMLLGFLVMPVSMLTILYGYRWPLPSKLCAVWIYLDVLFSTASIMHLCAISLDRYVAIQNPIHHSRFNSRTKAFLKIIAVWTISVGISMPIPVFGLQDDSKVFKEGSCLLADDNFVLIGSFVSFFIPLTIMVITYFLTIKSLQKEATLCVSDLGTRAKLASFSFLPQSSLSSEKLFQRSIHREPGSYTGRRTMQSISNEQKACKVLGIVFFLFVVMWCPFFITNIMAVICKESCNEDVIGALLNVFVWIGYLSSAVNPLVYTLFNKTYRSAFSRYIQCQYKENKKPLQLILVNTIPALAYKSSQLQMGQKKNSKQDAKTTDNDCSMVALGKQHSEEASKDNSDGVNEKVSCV
T1 sequence (P41595 whole entry): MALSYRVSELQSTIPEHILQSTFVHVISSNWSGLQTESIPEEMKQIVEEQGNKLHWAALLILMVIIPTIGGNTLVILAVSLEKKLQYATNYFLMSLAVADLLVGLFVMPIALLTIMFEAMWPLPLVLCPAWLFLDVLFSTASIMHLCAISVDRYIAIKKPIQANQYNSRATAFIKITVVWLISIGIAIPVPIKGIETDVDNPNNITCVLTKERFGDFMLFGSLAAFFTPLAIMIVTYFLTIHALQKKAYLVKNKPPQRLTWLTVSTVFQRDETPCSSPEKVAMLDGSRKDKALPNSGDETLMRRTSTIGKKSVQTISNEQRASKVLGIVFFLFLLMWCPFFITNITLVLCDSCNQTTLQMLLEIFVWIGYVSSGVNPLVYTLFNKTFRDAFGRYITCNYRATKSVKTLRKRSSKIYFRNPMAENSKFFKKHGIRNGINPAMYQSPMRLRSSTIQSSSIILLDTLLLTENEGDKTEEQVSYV

In the case of CCSc1ccc2c(c1)N(C[C@H](C)N)CC2, the pEC50 [1] was 7.14, the pKi [2] was 6.74 and the pKi [3] was 7.80. It also gave a Relative efficacy [4] of 67%, a pKi [5] of 6.72 and a pEC50 [6] of 7.40. For the same compound, the pEC50 [7] was 6.42 and the Relative efficacy [8] was 71%.

C[C@H](N)CN1CCc2ccc(Cl)cc21 gave a pEC50 [1] of 8.19, a pKi [2] of 6.44 and a pKi [3] of 7.89. It also gave a Relative efficacy [4] of 76%, a pKi [5] of 7.27 and a pEC50 [6] of 7.36. For the same compound, the pEC50 [7] was 6.22 and the Relative efficacy [8] was 55%.

In the case of C[C@H](N)CN1CCc2ccc(Br)cc21, the pEC50 [1] was 7.96, the pKi [2] was 6.45 and the pKi [3] was 7.62. The Relative efficacy [4] was 78%, the pKi [5] was 7.34 and the pEC50 [6] was 7.36. It also gave a pEC50 [7] of 6.14, a Relative efficacy [8] of 54% and a minimal effective dose (Rattus norvegicus [9]) of 30 mg/kg. For the same compound, the minimal effective dose (Rattus norvegicus [10]) was 3 mg/kg.

With C[C@H](N)CN1CCc2cc(F)c(I)cc21 the pEC50 [1] was 7.66, the pKi [2] was 6.86 and the pKi [3] was 7.77. The Relative efficacy [4] was 71%, the pKi [5] was 7.42 and the pEC50 [6] was 7.19. For the same compound, the pEC50 [7] was 6.36 and the Relative efficacy [8] was 54%.

Compound CCSc1cc2c(cc1F)CCN2C[C@H](C)N has a pEC50 [1] of 7.51, a pKi [2] of 7.24 and a pKi [3] of 8.19. For the same compound, the Relative efficacy [4] was 66%, the pKi [5] was 7.21 and the pEC50 [6] was 7.68. It also gave a pEC50 [7] of 6.74 and a Relative efficacy [8] of 80%.

C[C@H](N)CN1CCc2cc(F)c(Cl)cc21 gave a pEC50 [1] of 8.14, a pKi [2] of 6.78 and a pKi [3] of 7.85. It also gave a Relative efficacy [4] of 77%, a pKi [5] of 7.51 and a pEC50 [6] of 7.51. For the same compound, the pEC50 [7] was 6.44 and the Relative efficacy [8] was 66%.

Work on C[C@H](N)Cn1ccc2cc(F)c(Cl)cc21 yielded a pEC50 [1] of 8.37, a pKi [2] of 7.42 and a pKi [3] of 8.64. It also gave a Relative efficacy [4] of 71%, a pKi [5] of 8.29 and a pEC50 [6] of 7.74. It also gave a Relative efficacy [8] of 72%.

Compound CSc1cc2c(cc1F)CCN2C[C@H](C)N has a pEC50 [1] of 8.39, a pKi [2] of 7.28 and a pKi [3] of 8.49. The Relative efficacy [4] was 72%, the pKi [5] was 7.68 and the pEC50 [6] was 8.17. It also gave a pEC50 [7] of 7.12, a Relative efficacy [8] of 87% and a minimal effective dose (Rattus norvegicus [9]) of 3 mg/kg. It also gave a minimal effective dose (Rattus norvegicus [10]) of 0.3 mg/kg.

CSc1ccc2c(c1)N(C[C@H](C)N)CC2 was tested, and the pEC50 [1] was 8.00, the pKi [2] was 6.77 and the pKi [3] was 8.24. The Relative efficacy [4] was 78%, the pKi [5] was 7.05 and the pEC50 [6] was 7.59. It also gave a pEC50 [7] of 6.79 and a Relative efficacy [8] of 72%.

C[C@H](N)CN1CCc2cc(F)c(C(F)(F)F)cc21 was tested, and the pEC50 [1] was 7.31, the pKi [2] was 6.36 and the pKi [3] was 7.59. The Relative efficacy [4] was 86%, the pKi [5] was 7.06 and the pEC50 [6] was 6.89. The pEC50 [7] was 5.97 and the Relative efficacy [8] was 45%.

C[C@H](N)CN1CCc2ccc3c(c21)CCCO3 was tested, and the pEC50 [1] was 7.44, the pKi [2] was 6.40 and the pKi [3] was 7.42. The Relative efficacy [4] was 67%, the pKi [5] was 6.45 and the pEC50 [6] was 7.55. It also gave a pEC50 [7] of 6.90 and a Relative efficacy [8] of 71%.

Work on C[C@H](N)CN1CCc2ccc3c(c21)CCO3 yielded a pEC50 [1] of 8.52, a pKi [2] of 6.95 and a pKi [3] of 8.06. The Relative efficacy [4] was 74%, the pKi [5] was 7.31 and the pEC50 [6] was 8.35. For the same compound, the pEC50 [7] was 7.21, the Relative efficacy [8] was 81% and the minimal effective dose (Rattus norvegicus [9]) was 1 mg/kg. The minimal effective dose (Rattus norvegicus [10]) was 0.1 mg/kg.

With Clc1cccc(N2CCNCC2)c1 [CHLOROPHENYLPIPERAZINE] the minimal effective dose (Rattus norvegicus [9]) was 10 mg/kg and the minimal effective dose (Rattus norvegicus [10]) was 1 mg/kg.
